Experimental data as given in patent US20140088306A1, “RADIOACTIVE FLUORINE-LABELED QUINOXALINE COMPOUND” (Nihon Medi-Physics Co., Ltd., priority 2012, published 2014).
Read-outs that look alike come from different tables or passages of the source. Values belong to the molecule of their own block, whether it stands above or below them.

Assays:
[1] = tested on: amyloid plaques; experiment: Autoradiography using postmortem brain section of patient with Alzheimer's disease (Example 7); type: binding, human (Alzheimer's disease patient); conditions: brain section (temporal lobe) of Alzheimer's disease patient; 0.37 MBq/100 μL, 1 hour
Protocol: A postmortem autopsy brain section (temporal lobe) of a patient with Alzheimer's disease was incubated together with each of [^18F]E3, [^18F]D3, [^18F]E1, and [^18F]E2 (0.37 MBq/100 μL each) at room temperature for 1 hour. The resultant was washed with a 50 volume % ethanol aqueous solution (2 minutes×2) and water (2 minutes×2), and after drying, the section was contacted with BAS imaging plate (from Fujifilm Corporation) for 1.5 hours. The image of autoradiography was obtained using BAS5000 scanner system (from Fujifilm Corporation).
A section adjacent to the brain section used was immunostained in the following manner.
First, a paraffin-embedded brain section of the Alzheimer's disease patient (temporal lobe, 6 μm in thickness) was incubated with xylene (15 minutes×2), ethanol (1 minute×2), a 90 volume % ethanol aqueous solution (1 minute×2), and a 70 volume % ethanol aqueous solution (1 minute×1) in that order for complete deparaffinization, and then washed in water (2.5 minutes×2). Thereafter, the section was subjected to autoclave treatment for 15 minutes in 0.01 mol/L citrate buffer solution (pH 6.0). The resultant was incubated in PBS-Tween20 (5 minutes×2), and a mouse anti-Aβ1-42 primary monoclonal antibody (from Wako Pure Chemical Industries Ltd.) was then added thereto, which was then incubated at room temperature overnight. The resultant was incubated in PBS-Tween20 (2 minutes×3), and a biotin-goat anti-mouse IgG (from Funakoshi Co., Ltd.) was then added thereto, which was then incubated at room temperature for 1 hour. The resultant was incubated in PBS-Tween20 (5 minutes×3), and a streptavidin-peroxidase complex (from Funakoshi Co., Ltd.) was added thereto, which was then incubated at room temperature for 30 minutes. In addition, the resultant was incubated in PBS-Tween20 (2 minutes×3); 3,3′-diaminobenzidine was added thereto, which was then incubated at room temperature for 30 minutes; and after washing with water, the section was observed under a microscope to provide an immunostained image (FIG. 10).

[2] = In vivo radioactivity distribution experiment (Example 8); conditions: ddY mice, tail vein, SD in parenthesis
Protocol: Through the tail vein of ddY mice (male, 5 week-old) was injected each of a 10 volume % ethanol-containing saline solution of [^18F]E3 (45.4 kBq, 100 μL), a 10 volume % ethanol-containing saline solution of [^18F]D3 (38.2 kBq, 100 μL), a 10 volume % ethanol-containing saline solution of [^18F]E1 (45.1 kBq, 100 μL), and a 10 volume % ethanol-containing saline solution of [^18F]E2 (40.6 kBq, 100 μL). Five mice were used for each group and sacrificed 2, 10, 30, and 60 minutes after administration to remove major organs. The blood and organs were weighed and further measured for radioactivity using a γ counter. The amount of radioactivity per unit mass was measured in each organ to evaluate radioactivity distribution.

[3] = biological target: T1, Aβ1-42 aggregates (Homo sapiens, UniProt P05067); experiment: [^125I]IMPY binding inhibition experiment (Example 5); conditions: for binding property to Aβ1-42 aggregates: [^125I]IMPY binding inhibition, result in words
T1 construct: Aβ1-42 aggregates (Peptide Institute, Inc, Osaka) were dissolved in 0.1 mol/L phosphate-buffered saline; purchased Peptide Institute, Inc., Osaka
Protocol: Aβ1-42 aggregates (Peptide Institute, Inc, Osaka) were dissolved in 0.1 mol/L phosphate-buffered saline (hereinafter referred to as PBS) to 0.25 mg/mL and incubated at 37° C. for 42 hours to prepare an Aβ1-42 aggregate PBS solution. This was further diluted 1:100 with PBS to 2.5 μg/mL and used for an assay.
The mixture was filtered through Whatman (R) GF/B filter, and a γ counter was used to measure the radioactivity of the filter. The measured radioactivity values were used to prepare an inhibition curve to calculate IC50. In addition, the following mathematical expression (1):
was used to calculate an inhibition constant (Ki).

[4] = inhibition of [^125I]IMPY binding to Aβ1-42 aggregates

T1 sequence (P05067 672-713 limits assumed): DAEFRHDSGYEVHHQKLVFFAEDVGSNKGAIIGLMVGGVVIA

Ki [3]: 0.947 nM
binding property to Aβ1-42 aggregates [3]: sufficiently high binding property
Molecule: CN(C)c1ccc(-c2cnc3cc(OCCF)ccc3n2)cc1 [Compound D3, 4-(6-(2-Fluoroethoxy)quinoxalin-2-yl)-N,N-dimethylaniline]

Ki [3, 4]: 1180 nM
Molecule: Nc1ccc(-c2cnc3ccc(OCCF)cc3n2)cc1 [Compound E1, 4-(7-(2-Fluoroethoxy)quinoxalin-2-yl)aniline]
binding property to Aβ1-42 aggregates [3]: not each confirmed to have a sufficient binding property

Ki [3, 4]: 758 nM
Molecule: CNc1ccc(-c2cnc3ccc(OCCF)cc3n2)cc1 [Compound E2, 4-(7-(2-Fluoroethoxy)quinoxalin-2-yl)-N-methylaniline]
binding property to Aβ1-42 aggregates [3]: not each confirmed to have a sufficient binding property

The next lines start with the molecule.

Molecule: 4-(7-(2-[^18F]Fluoroethoxy)quinoxalin-2-yl)-N,N-dimethylaniline [[^18F]E3]
visualization of gray matter / amyloid plaques by autoradiography [1]: amyloid plaques were visualized
Radioactivity Amount, Blood ([2]; 2 min. after): 2.26 (0.21) % injected dose/g
Radioactivity Amount, Blood ([2]; 10 min. after): 1.91 (0.68) % injected dose/g
Radioactivity Amount, Blood ([2]; 30 min. after): 2.42 (0.17) % injected dose/g
Radioactivity Amount, Blood ([2]; 60 min. after): 2.38 (0.25) % injected dose/g
Radioactivity Amount, Bone ([2]; 2 min. after): 2.45 (0.43) % injected dose/g
Radioactivity Amount, Bone ([2]; 10 min. after): 2.20 (0.09) % injected dose/g
Radioactivity Amount, Bone ([2]; 30 min. after): 2.10 (0.39) % injected dose/g
Radioactivity Amount, Bone ([2]; 60 min. after): 2.02 (0.36) % injected dose/g
Radioactivity Amount, Brain ([2]; 2 min. after): 5.78 (0.60) % injected dose/g
Radioactivity Amount, Brain ([2]; 10 min. after): 3.82 (0.33) % injected dose/g
Radioactivity Amount, Brain ([2]; 30 min. after): 1.85 (0.09) % injected dose/g
Radioactivity Amount, Brain ([2]; 60 min. after): 1.48 (0.07) % injected dose/g
Radioactivity Amount, Heart ([2]; 2 min. after): 6.12 (0.79) % injected dose/g
Radioactivity Amount, Heart ([2]; 10 min. after): 3.48 (0.56) % injected dose/g
Radioactivity Amount, Heart ([2]; 30 min. after): 2.43 (0.12) % injected dose/g
Radioactivity Amount, Heart ([2]; 60 min. after): 2.22 (0.08) % injected dose/g
Radioactivity Amount, Intestine ([2]; 2 min. after): 3.24 (0.43) % injected dose/g
Radioactivity Amount, Intestine ([2]; 10 min. after): 7.95 (1.28) % injected dose/g
Radioactivity Amount, Intestine ([2]; 30 min. after): 16.2 (1.71) % injected dose/g
Radioactivity Amount, Intestine ([2]; 60 min. after): 17.9 (3.64) % injected dose/g
Radioactivity Amount, Kidney ([2]; 2 min. after): 8.65 (0.88) % injected dose/g
Radioactivity Amount, Kidney ([2]; 10 min. after): 5.19 (0.88) % injected dose/g
Radioactivity Amount, Kidney ([2]; 30 min. after): 3.30 (0.27) % injected dose/g
Radioactivity Amount, Kidney ([2]; 60 min. after): 3.51 (1.21) % injected dose/g
Radioactivity Amount, Liver ([2]; 2 min. after): 11.9 (1.35) % injected dose/g
Radioactivity Amount, Liver ([2]; 10 min. after): 11.7 (0.80) % injected dose/g
Radioactivity Amount, Liver ([2]; 30 min. after): 7.11 (1.56) % injected dose/g
Radioactivity Amount, Liver ([2]; 60 min. after): 5.30 (0.82) % injected dose/g
Radioactivity Amount, Lung ([2]; 2 min. after): 5.74 (0.48) % injected dose/g
Radioactivity Amount, Lung ([2]; 10 min. after): 4.02 (0.32) % injected dose/g
Radioactivity Amount, Lung ([2]; 30 min. after): 2.80 (0.15) % injected dose/g
Radioactivity Amount, Lung ([2]; 60 min. after): 2.20 (0.14) % injected dose/g
Radioactivity Amount, Pancreas ([2]; 2 min. after): 6.82 (0.80) % injected dose/g
Radioactivity Amount, Pancreas ([2]; 10 min. after): 3.51 (0.37) % injected dose/g
Radioactivity Amount, Pancreas ([2]; 30 min. after): 2.31 (0.19) % injected dose/g
Radioactivity Amount, Pancreas ([2]; 60 min. after): 1.60 (0.18) % injected dose/g
Radioactivity Amount, Spleen ([2]; 2 min. after): 3.67 (0.40) % injected dose/g
Radioactivity Amount, Spleen ([2]; 10 min. after): 2.89 (0.37) % injected dose/g
Radioactivity Amount, Spleen ([2]; 30 min. after): 2.31 (0.21) % injected dose/g
Radioactivity Amount, Spleen ([2]; 60 min. after): 1.74 (0.05) % injected dose/g
Radioactivity Amount, Stomach* ([2]; 2 min. after): 1.07 (0.20) % injected dose per organ
Radioactivity Amount, Stomach* ([2]; 10 min. after): 2.54 (0.88) % injected dose per organ
Radioactivity Amount, Stomach* ([2]; 30 min. after): 2.02 (0.63) % injected dose per organ
Radioactivity Amount, Stomach* ([2]; 60 min. after): 1.42 (0.22) % injected dose per organ

Molecule: CN(C)c1ccc(-c2cnc3ccc(OCCF)cc3n2)cc1 [Compound E3, 4-(7-(2-Fluoroethoxy)quinoxalin-2-yl)-N,N-dimethylaniline]
binding property to Aβ1-42 aggregates [3]: sufficiently high binding property
Ki [3, 4]: 111 nM

Molecule: Nc1ccc(-c2cnc3ccc(OCC[18F])cc3n2)cc1 [[^18F]E1, 4-(7-(2-[^18F]Fluoroethoxy)quinoxalin-2-yl)aniline]
visualization of gray matter / amyloid plaques by autoradiography [1]: did not visualize the gray matter but rather strongly visualized the white matter
Radioactivity Amount, Liver ([2]; 2 min. after): 9.18 (1.45) % injected dose/g
Radioactivity Amount, Liver ([2]; 10 min. after): 12.1 (1.82) % injected dose/g
Radioactivity Amount, Liver ([2]; 30 min. after): 8.76 (1.01) % injected dose/g
Radioactivity Amount, Liver ([2]; 60 min. after): 6.52 (0.93) % injected dose/g
